From patent publication US8242118B2, “Arylsulfonamide derivatives for use as CCR3 antagonists in the treatment of inflammatory and immunological disorders” (Axikin Pharmaceuticals Inc., priority 2001, dated 2012)

Tests used:
[1] = molecular target: T1, Human CCR3 (Homo sapiens, UniProt P51677); assay: Receptor binding assay (RBA), [125I]-eotaxin; settings: human CCR3-transformed K562 cells, 0.1 nM [125I]-eotaxin; compounds of about 40 to 90% purity; read-out: Activity grade RBA (IC50 class)
T1 construct: The cloned CCR3 cDNA was constructed with pcDNA3 vector and transfected into a IC562 cell line; expressed in transfected cells
T1 sequence (P51677 1-355): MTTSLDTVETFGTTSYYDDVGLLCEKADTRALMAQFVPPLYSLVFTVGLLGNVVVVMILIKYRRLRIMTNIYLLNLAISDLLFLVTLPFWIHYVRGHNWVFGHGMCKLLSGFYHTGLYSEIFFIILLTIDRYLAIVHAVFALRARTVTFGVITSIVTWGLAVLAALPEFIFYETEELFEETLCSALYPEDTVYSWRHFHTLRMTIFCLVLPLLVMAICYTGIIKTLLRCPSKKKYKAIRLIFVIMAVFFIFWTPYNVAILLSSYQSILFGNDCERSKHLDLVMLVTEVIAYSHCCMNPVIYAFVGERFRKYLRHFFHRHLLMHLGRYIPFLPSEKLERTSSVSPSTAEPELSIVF
Method: [Determination of IC50 Values of Compounds in Receptor Binding Assay]
• Human CCR3-transformed K562 cells were used. The cloned CCR3 cDNA was constructed with pcDNA3 vector and transfected into a IC562 cell line. The human CCR3-transformed K562 cells were maintained in RPMI-1640 (Cat.#22400-089, Life Technologies) supplemented with 10% FCS (Cat.#A-1115-L, Hyclone), 55 μM 2-mercaptoethanol (Cat.#21985-023, Life Technologies), 1 mM sodium pyruvate (Cat.#11360-070, Life Technologies), 100 units/ml of penicillin G and 100 μg/ml of streptomycin (Cat.#15140-122, Life Technologies), and 0.4 mg/ml of Geneticin (Cat.#10131-035, Life Technologies)(hereinafter called “culture medium”). Before the receptor binding assay, cells were pretreated with 5 mM sodium butyrate (Cat.#193-01522, Wako)-containing the culture medium (2×10^5 cells/ml) for 20-24 hours to increase the expression of CCR3. (2) Receptor Binding Assay (RBA) • Butyrate-pretreated cells, suspended in binding buffer (25 mM HEPES pH 7.6, 1 mM CaCl2, 5 mM MgCl2, 0.5% BSA, 0.1% NaN3) at a cell density of 2×10^6 cells/ml, were added into 60 μl/well in the 96-well round bottom polypropylene plate (Cat.#3365, Costar). Compounds, diluted with the binding buffer (4-times higher concentration of the final concentration), were added into 30 μl/well in the polypropylene plate. [^125I]-labeled human eotaxin (Cat.#IM290, Amersham Pharmacia Biotech), diluted with the binding buffer at the concentration of 0.4 nM (final concentration; 0.1 nM), was added into 30 μl/well in the polypropylene plate. Total 120 μl/well of binding reaction mixture (60 μl/well of cell suspension, 30 μl/well of compound solution, and 30 μl/well of [^125I]-labeled eotaxin) were incubated in the polypropylene plate for 1 hour at room temperature after the incubation, 100 μl/well of the reaction mixture was transferred to a filtration plate (Cat.#MAFB-N0B, Millipore), and washed with the washing buffer (25 mM HEPES pH 7.6, 1 mM CaCl2, 5 mM MgCl2, 0.5% BSA, 0.1% NaN3, 0.5 M NaCl) twice. The 96-well filtration plate was pretreated with 100 μl/well of 0.5% polyethylenimine (Cat.#P-3143, Sigma) for 2-4 hours at room temperature and washed with the washing buffer twice before use. The non-specific binding was determined by parallel incubation in the presence of 500 nM of non-labeled eotaxin (Cat.#23209, Genzyme Techne). The radioactivities remained on the filter were measured by liquid scintillation counter (TopCount™, Packard) after an addition of 45 μl/well of scintillant (Microscint20, Cat.#6013621, Packard). The inhibition percent at each concentration of compound was calculated, and IC50 values were determined from the inhibition curve. [Determination of IC50 Values of Compounds in Calcium Mobilization Assay] (IC50 Ca2+) (1) Cell • Human CCR3-transformed K562 cells were used. The human CCR3-transformed K562 cells were maintained in RPMI-1640 supplemented with 10% FCS, 55 μM 2-mercaptoethanol (Cat.#21985-023, Life Technologies), 1 mM sodium pyruvate, 100 units/ml of penicillin G and 100 μg/ml of streptomycin and 0.4 mg/ml of Geneticin. Before the calcium mobilization assay, cells were pretreated with 5 mM sodium butyrate-containing the culture medium (2×10^5 cells/ml) for 20-24 hours to increase the expression of CCR3. (2) Calcium Mobilization Assay • Butyrate-pretreated cells were loaded with Fluo-3AM (Cat.#F-1242, Molecular Probes) in loading buffer (Hanks' solution Cat.#05906 Nissui, 20 mM HEPES pH 7.6, 0.1% BSA, 1 mM probenecid Cat.#P-8761 Sigma, 1 μM Fluo-3AM, 0.01% pluronic F-127 Cat.#P-6866 Molecular Probes) at a cell density of 1×10^7 cells/ml. Then, cells were washed with calcium assay buffer (Hanks' solution Cat.#05906 Nissui, 20 mM HEPES pH 7.6, 0.1% BSA, 1 mM Probenecid Cat.#P-8761 Sigma). The cell suspension (3.3×10^6 cells/ml) was added into 60 μl/well in the 96-well clear bottom black plate (Cat.#3904, Costar). […]

IC50 [1]: < 1 µM
melting point: 161 °C
Compound: N#Cc1ccc(Oc2cc(Cl)cc(Cl)c2)c(S(=O)(=O)N2CCN3CCCC3C2)c1 (centres unmarked) [Example 13-12]
